{"source": "paper PMC11881906", "about": "“Development of xanthone derivatives as effective broad-spectrum antimicrobials: Disrupting cell wall and inhibiting DNA synthesis” (Science Advances, 2025)", "key": {"Gram-negative bacteria": {"test_system": "Gram-negative bacteria", "assay": "MIC, Gram-negative strains", "format": "cell-based", "conditions": "read-out: MICs against Gram-negative bacteria", "description": "MIC was determined using the broth microdilution method in accordance with Clinical and Laboratory Standards Institute guidelines. All compounds were dissolved in dimethyl sulfoxide (DMSO; final DMSO concentration of less than 0.5%) and sterile double-distilled water and then diluted with Mueller-Hinton broth (MHB). Each compound’s stock solution was serially twofold diluted, resulting in concentrations ranging from 0.39 to 100 μg/ml, and thereafter added to sterile 96-well plates. All bacterial cell suspensions were adjusted in MHB to attain a starting inoculum of 1 × 10^6 cells/ml. A total of 100 μl volume of the bacterial suspension was then added to each well. Following a 24-hour incubation at 37°C, the optical density at 600 nm (OD600) was confirmed by measuring absorbance at 600 nm with a BioTek microplate reader. […] All measurements were repeated three times with duplicates each time."}, "CCK-8 cytotoxicity assay": {"assay": "CCK-8 cytotoxicity assay", "format": "cell-based", "description": "(§1) Cytotoxicity of the compound tested was assessed by CCK-8 assays as previously described ([71]). […] Following a 24-hour incubation, 10 μl of CCK-8 reagent was added to each well and incubated for 1 hour. The absorbance at 450 nm was measured by a microplate reader. All measurements were repeated three times with duplicates each time."}, "[1]": {"assay": "In vitro cytotoxicity (CC50)", "format": "cell-based", "conditions": "human, mouse, HepG2 cells and mouse fibroblast NCTC clone 929 cells; mammalian cells, CCK-8; read-out: concentration of cytotoxicity 50% (CC50)", "description": "as §1"}, "E. coli ATCC 25922": {"test_system": "E. coli ATCC 25922", "assay": "RNA-seq transcriptome response", "format": "cell-based, Escherichia coli", "conditions": "4× MIC, 2 hours", "description": "After exposure, 1-ml aliquots of cells were immediately pelleted at 4°C by centrifugation for 2 min at 2000 rpm. The supernatants were removed and immediately frozen in liquid nitrogen. The samples were stored at −80°C for later total RNA isolation. Total RNA was extracted using the bacterial RNA kit (Omega Bio-Tek, USA) according to the manufacturer’s instructions. The RNA integrity number values were obtained to assess RNA quality using an Agilent Genomics 2200 Tape Station instrument.\nA total amount of 2 to 5 ng of the RNA per sample was executed as the input material to construct each cDNA library for RNA-seq using the NEBNext Ultra Directional RNA Library prep kit from Illumina. The quality of the resulting libraries was checked using Agilent High Sensitivity DNA chips to ensure proper library size distribution and the absence of small adapters.\nRead mapping was aligned using Bowtie2 ([74]). HTSeq v0.6.1 was used for quantification of expression levels ([75]). DESeq2 on the R package (v1.12.4) was used to calculate DEGs. Differential expression was computed using edgeR: exactTest for each treatment versus the untreated control ([76]). The E. coli database used for mapping was GCF_017357505.1_ASM1735750v1_genomic.fna. Both the GO and KEGG (KEGG Ortholog database) enrichment analyses were done with the Fisher’s exact test. All P values were adjusted with the Benjamini-Hochberg procedure to generate false discovery rates (adjusted P values). GO enrichment analysis was carried out using the clusterProfiler package on the R platform ([77]). KEGG pathway mapping and figure generation were performed with the PathView website ([78]). COG of protein databases were searched with an E value of 1e^-5. For hierarchal clustering analysis of gene expression, the gene expression levels were normalized to z scores of log10 (FPKM + 1), where FPKM is fragments per kilobase per million. For hierarchal clustering analysis of the regulation of transcription factors, the unweighted pair group method with arithmetic mean (UPGMA) method was used as the clustering method. […] Volcano plots were generated by plot_volcano from soothsayer (https://github.com/jolespin/soothsayer) in Python v.3.6.6. Directed networks were constructed and plotted using NetworkX and Matplotlib Python packages, respectively. Hierarchical clustering analysis and heatmap calculation were performed with the pheatmap package on the R platform. The umap package on the R platform was used for uniform manifold approximation and projection (UMAP) analysis of FPKM vectors of each transcriptome. The figures were created via the ggplot2 package ([79])."}, "[2]": {"conditions": "human, HepG2 cells, read-out: Viable cells (%) HepG2 cells"}, "[3]": {"conditions": "mouse, NCTC clone 929 fibroblast cells, read-out: %Viable cells NCTC clone 929 cells"}}, "note": "Read-outs that look alike come from different tables or passages of the source."}
{"smiles": "CC(C)=CCOc1cc(OCCCNC(=N)N)cc2oc3cc(OCCCNC(=N)N)ccc3c(=O)c12", "note": "[XT17]", "values": [{"measurement": "MIC", "setting": "Gram-negative bacteria", "result": 3.12, "unit": "µg/mL"}, {"measurement": "viability at 24 h, 3.125 μg/ml", "setting": "CCK-8 cytotoxicity assay; [2]", "result": 105, "unit": "%"}, {"measurement": "viability at 24 h, 6.25 μg/ml", "setting": "CCK-8 cytotoxicity assay; [2]", "result": 110, "unit": "%"}, {"measurement": "viability at 24 h, 12.5 μg/ml", "setting": "CCK-8 cytotoxicity assay; [2]", "result": 104, "unit": "%"}, {"measurement": "viability at 24 h, 25 μg/ml", "setting": "CCK-8 cytotoxicity assay; [2]", "result": 83.9, "unit": "%"}, {"measurement": "viability at 24 h, 50 μg/ml", "setting": "CCK-8 cytotoxicity assay; [2]", "result": "62.2 ± 8.01", "unit": "%"}, {"measurement": "viability at 24 h, 100 μg/ml", "setting": "CCK-8 cytotoxicity assay; [2]", "result": 40.6, "unit": "%"}, {"measurement": "viability at 24 h, 3.125 μg/ml", "setting": "CCK-8 cytotoxicity assay; [3]", "result": 90, "unit": "%"}, {"measurement": "viability at 24 h, 6.25 μg/ml", "setting": "CCK-8 cytotoxicity assay; [3]", "result": 87.9, "unit": "%"}, {"measurement": "viability at 24 h, 12.5 μg/ml", "setting": "CCK-8 cytotoxicity assay; [3]", "result": 87.7, "unit": "%"}, {"measurement": "viability at 24 h, 25 μg/ml", "setting": "CCK-8 cytotoxicity assay; [3]", "result": "78.9 ± 3.46", "unit": "%"}, {"measurement": "viability at 24 h, 50 μg/ml", "setting": "CCK-8 cytotoxicity assay; [3]", "result": "51.6 ± 2.46", "unit": "%"}, {"measurement": "viability at 24 h, 100 μg/ml", "setting": "CCK-8 cytotoxicity assay; [3]", "result": 8.16, "unit": "%"}, {"measurement": "CC50 at 24 h", "setting": "[1]", "result": "> 50", "unit": "µg/mL"}, {"measurement": "genes expressed", "setting": "E. coli ATCC 25922", "result": 4617, "unit": "genes"}, {"measurement": "Log2FC clbN (colibactin non-ribosomal peptide synthetase ClbN)", "setting": "E. coli ATCC 25922; vs untreated", "result": -2.7305}, {"measurement": "Log2FC cspE (transcription antiterminator/RNA stability regulator CspE)", "setting": "E. coli ATCC 25922; vs untreated", "result": -4.5456}, {"measurement": "Log2FC dnaE (DNA polymerase III subunit alpha)", "setting": "E. coli ATCC 25922; vs untreated", "result": 2.4033}, {"measurement": "Log2FC dnaN (DNA polymerase III subunit beta)", "setting": "E. coli ATCC 25922; vs untreated", "result": 2.4370}, {"measurement": "Log2FC dnaQ (DNA polymerase III subunit epsilon)", "setting": "E. coli ATCC 25922; vs untreated", "result": 2.6769}, {"measurement": "Log2FC dnaT (primosomal protein DnaT)", "setting": "E. coli ATCC 25922; vs untreated", "result": 1.8873}, {"measurement": "Log2FC dnaX (DNA polymerase III subunit gamma/tau)", "setting": "E. coli ATCC 25922; vs untreated", "result": 1.3272}, {"measurement": "Log2FC gyrA (DNA topoisomerase (ATP-hydrolyzing) subunit A)", "setting": "E. coli ATCC 25922; vs untreated", "result": 2.7733}, {"measurement": "Log2FC gyrB (DNA topoisomerase (ATP-hydrolyzing) subunit B)", "setting": "E. coli ATCC 25922; vs untreated", "result": 2.8529}, {"measurement": "Log2FC holB (DNA polymerase III subunit delta')", "setting": "E. coli ATCC 25922; vs untreated", "result": 3.5242}, {"measurement": "Log2FC holC (DNA polymerase III subunit chi)", "setting": "E. coli ATCC 25922; vs untreated", "result": 1.8432}, {"measurement": "Log2FC holD (DNA polymerase III subunit psi)", "setting": "E. coli ATCC 25922; vs untreated", "result": 2.6144}, {"measurement": "Log2FC parC (DNA topoisomerase IV subunit A)", "setting": "E. coli ATCC 25922; vs untreated", "result": 2.5193}, {"measurement": "Log2FC parE (DNA topoisomerase IV subunit B)", "setting": "E. coli ATCC 25922; vs untreated", "result": 2.3205}, {"measurement": "Log2FC priA (primosomal protein N')", "setting": "E. coli ATCC 25922; vs untreated", "result": 3.3285}, {"measurement": "Log2FC priB (primosomal replication protein N)", "setting": "E. coli ATCC 25922; vs untreated", "result": 5.8981}, {"measurement": "Log2FC priC (primosomal replication protein N'')", "setting": "E. coli ATCC 25922; vs untreated", "result": 2.6334}, {"measurement": "Log2FC recA (recombinase RecA)", "setting": "E. coli ATCC 25922; vs untreated", "result": 5.7854}, {"measurement": "Log2FC recB (exodeoxyribonuclease V subunit beta)", "setting": "E. coli ATCC 25922; vs untreated", "result": 2.0328}, {"measurement": "Log2FC recC (exodeoxyribonuclease V subunit gamma)", "setting": "E. coli ATCC 25922; vs untreated", "result": 2.4556}, {"measurement": "Log2FC recF (DNA replication/repair protein RecF)", "setting": "E. coli ATCC 25922; vs untreated", "result": 1.6106}, {"measurement": "Log2FC recG (ATP-dependent DNA helicase RecG)", "setting": "E. coli ATCC 25922; vs untreated", "result": 1.6673}, {"measurement": "Log2FC recJ (single-stranded-DNA-specific exonuclease RecJ)", "setting": "E. coli ATCC 25922; vs untreated", "result": 4.2947}, {"measurement": "Log2FC recO (DNA repair protein RecO)", "setting": "E. coli ATCC 25922; vs untreated", "result": 2.8669}, {"measurement": "Log2FC recR (recombination mediator RecR)", "setting": "E. coli ATCC 25922; vs untreated", "result": 2.2758}, {"measurement": "Log2FC ruvA (Holliday junction branch migration protein RuvA)", "setting": "E. coli ATCC 25922; vs untreated", "result": 3.9191}, {"measurement": "Log2FC ruvB (Holliday junction branch migration DNA helicase RuvB)", "setting": "E. coli ATCC 25922; vs untreated", "result": 4.1938}, {"measurement": "Log2FC ruvC (crossover junction endodeoxyribonuclease RuvC)", "setting": "E. coli ATCC 25922; vs untreated", "result": 2.7878}, {"measurement": "Log2FC ssb1 (single-stranded DNA-binding protein SSB1)", "setting": "E. coli ATCC 25922; vs untreated", "result": 3.2652}, {"measurement": "down-regulated genes", "setting": "E. coli ATCC 25922; vs untreated", "result": 348, "unit": "genes"}, {"measurement": "up-regulated genes", "setting": "E. coli ATCC 25922; vs untreated", "result": 2885, "unit": "genes"}, {"measurement": "differentially expressed genes", "setting": "E. coli ATCC 25922; vs untreated, P < 0.05, absolute log2 fold change > 1", "result": 3233, "unit": "genes"}]}
